Results from US20250017252A1, “Fatty acids for boostering ketogenic diet” (N.V. Nutricia, priority 2022, published 2025).
Entries after “also recorded” stand apart in the source; their conditions may differ.

What was measured:
Format in all cases: cell-based
[1] = system: mouse liver cells (Hepa1-6 cell line); experiment: Ketone (β-hydroxybutyrate) production in mouse liver cells; conditions: for Effect of combining with OA on βHb production vs sum of individual effects: 1 μM to 10 μM + 100 μM OA; for βHb production when combined with oleic acid vs OA alone: 1 μM to 10 μM test nutrient + 100 μM OA; for βHb production when combined with fatty acid blend (K-one) vs blend alone: 1 μM to 10 μM test nutrient + 100 μM fatty acid blend; for βHb production, provided alone: test nutrient alone at 1 μM, 5 μM and 10 μM, no OA or fat blend, 6 hours; for Effect of combining with fatty acid blend on βHb production vs sum of individual effects: with 100 μM K-one fatty acid blend; for Ketone production in the absence of a ketogenic fat blend: 5 μM each, alone or in combination
Description: An assay to measure ketone production in mouse liver cells (Hepa1-6 cell line) was used wherein cells were first grown to a monolayer (growth phase), then exposed to starvation to deplete cellular lipid stores and subsequently brought into a ketogenic phase wherein cells were cultured in presence of oleic acid or a ketogenic diet fat blend with or without the presence of one of C2 fatty acid, C4 fatty acid, C6 fatty acid, citric acid and nicotinamide riboside. The ketone body production was subsequently determined by measurement of beta-hydroxybutyrate in the cell culture medium according to the details set out below:
Starvation phase: At the end of the growth phase the cells formed a monolayer. The medium was exchanged for DMEM containing 1 mM glucose and antibiotics (1% penicillin & streptomycin) but no FBS. The medium was further supplemented with L-carnitine (a required co-factor for the uptake of fatty acids into the mitochondria, where fatty acids are turned into ketones). The cells were incubated in this medium for 24 hours. During this time, the cells were vastly deprived of glucose, lipids and hormones contained in FBS, forcing them to consume and empty their lipid stores. […] Moreover, the starvation phase is thought to induce specific metabolic changes that maximize the production of ketones.
Ketogenic phase: At the end of the starvation phase, the medium was exchanged for Krebs-Henseleit buffer (KHB) supplemented with the L-carnitine and the test nutrients (table 1, single fatty acids C2, C4, C6 and citrate, nicotinamide riboside in combination with oleic acid fatty acid blend).
The fatty acid blend has a similar fatty acid composition as the one used in a ketogenic diet (K-one). The content of every fatty acid in the blend is given as the molar ratio to Oleic acid (OA), whose molar content is set to 1. Dilutions of this blend were used to determine the dose response curve in FIGS. 1B and 1D. C2 and C4 are not included in the blend.
KHB is composed of salts and bicarbonate as a chemical buffer to maintain the osmotic pressure and acidity (pH) at physiological levels. Medium and long chain fatty acids are coupled to bovine serum albumin prior to the assay to make them soluble in KHB and allow their efficient uptake by the cells. The coupling is physiological since in humans, medium and long chain fatty acids are normally coupled to albumin for transport in the blood circulation. Short chain fatty acids (C2, C4) were not coupled to albumin in the assay as they are water-soluble and circulate freely in humans. The cells were incubated for 6 hours at 37° C. During this time they produce ketones from the test nutrients with little to no interference from other nutrients and secrete β-hydroxybutyrate (β) into the medium.
β-Hb measurements: At the end of the ketogenic phase, the whole medium was collected and dried by vacuum centrifugation for 20 hours at 21° C. The dry pellet was resuspended in a small volume of assay buffer to yield a 10-20-fold higher β-Hb concentration than in the medium. The samples were deproteinized using spin columns to measure the free unbound fraction of β-Hb. […] The Fluorescence was measured on a fluorescence microplate reader and is directly proportional to the β-Hb concentration in the sample within a range of 0.1 μM to 50 μM β-Hb.

[2] = system: NAD+ depleted mouse liver cells (Hepa1-6 cells); experiment: NAD+ replenishment of NAD+ depleted mouse liver cells under ketogenic diet-like conditions
Excerpt: A ketogenic diet treatment leads to great consumption of NAD+ and other metabolically relevant NAD+ derivatives such as NADP+ creating a state of NAD+ exhaustion. Therefore, it was hypothesized that nicotinamide riboside (NR) may replenish NAD+ and thus sustains ketone production more effectively in liver cells than other NAD+ precursors including nicotinamide (NAM), nicotinic acid (NA), Niacin (defined as the combination of NA and NAM) or the amino acid tryptophan (Trp). While NA and NAM have been commonly referred to as vitamin B3, NR is a recently discovered and naturally occurring vitamin B3 member. An assay was developed to measure NAD+ replenishment of NAD+ depleted mouse liver cells (Hepa1-6 cells) by NAD+ precursors under ketogenic diet-like conditions. In this assay, mouse liver cells were starved of glucose and depleted of NAD+ through incubation in a very low glucose (1 mM) medium free of vitamin B3, tryptophan (Trp) and FBS and supplemented with 10 nM of an NAD+ depleting drug called FK866. Thereafter, the cells were fed with NR or NAM or Niacin (combination of NAM and NA in a 1:1 molar ratio) or Trp to replenish NAD+. At the end of the supplementation phase, the cells were scraped and extracted using the NAD+ extraction buffer of the EnzyChrom™ NAD/NADH Assay Kit from BioAssay Systems. The NAD+ content of the cells was determined with the same kit following the manufacturer's manual. The NAD+ measurement is based on a lactate dehydrogenase reaction, in which NAD+ is reduced to NADH, which in turn reduces a formazan (MTT) reagent. The intensity of the reduced product colour, measured at 565 nm, is proportional to the NAD+ concentration in the sample. This assay is highly specific for NAD+ and has minimal interference (<1%) by NADP+ or NADPH.

[3] = system: NAD+ depleted mouse liver cells; experiment: Ketone production of NAD+ depleted liver cells after NR replenishment; conditions: NR 10 μM, 150 μM and 1000 μM
Description: To measure the impact of replenishing NAD+ in liver cells with NR on ketone production, mouse liver cells were nutrient-deprived in medium containing low (1 mM) glucose, no fetal bovine serum, and no NAD+ precursors in the form of vitamin B3 (Niacin, NA, NAM) or Trp, but supplemented with L-carnitine.
Concomitantly the cells were treated with FK866. These conditions created ketogenic diet like nutrient conditions and depleted the cells of NAD+ After 18 hours of incubation, FK866 was removed from the medium and a concentration range of NR was added for the replenishment of NAD+. After 24 hours, the cells were switched to Krebs-Henseleit buffer (KHB) containing L-carnitine and a concentration range (1 μM to 100 μM) of oleic acid, a long chain fatty acid, for 6 hours to induce and measure the production and secretion of b-hydroxybutyrate (βHB) into the medium.

In the case of CC(=O)O [C2, ethanoic acid], the “Effect of combining with OA on βHb production vs sum of individual effects” value [1] is reported as “more than additive”, the “βHb production when combined with oleic acid vs OA alone” value (from here on “βHb production … vs OA alone”) [1] is reported as “more βHb than 100 μM OA alone” and the “βHb production when combined with fatty acid blend (K-one) vs blend alone” value (“βHb production when combined … vs blend alone” for short) [1] is reported as “slightly greater production of βHb”. For the same molecule, the “βHb production, provided alone” value [1] was “virtually no bHB; also recorded: no βHb” and the “Effect of combining with fatty acid blend on βHb production vs sum of individual effects” value [1] was “more than additive”.
For CCCC(=O)O [C4, butyric acid], the “Effect of combining with OA on βHb production vs sum of individual effects” value [1] was “more than additive”, the “βHb production … vs OA alone” value [1] was “more βHb than providing 100 μM OA alone” and the “βHb production when combined … vs blend alone” value [1] was “more βHb than providing the 100 μM fatty acid blend alone”. For the same molecule, the “Ketone production in the absence of a ketogenic fat blend” value [1] was “hardly any ketones”, the “Production of ketones from fatty acid blend concentration range” value ([1]; fixed 10 μM C4 + 1 μM to 100 μM fatty acid blend vs blend without C4) was “increasingly enhanced the production of ketones” and the “βHb production, provided alone” value [1] was “hardly yielded any βHb; also recorded: no βHb”. The “Effect of combining with fatty acid blend on βHb production vs sum of individual effects” value [1] was “more than additive”.
For CCCCCC(=O)O [C6, caproic acid], the “βHb production … vs OA alone” value [1] was “potentiates the production of ketones”, the “βHb production when combined … vs blend alone” value [1] was “potentiates the production of ketones” and the “Ketone production in the absence of a ketogenic fat blend” value [1] was “hardly any ketones”. The “Concentration above which the fatty acid starts to be turned into βHb (substrate)” value ([1]; dose-response curve 1 μM to 100 μM, alone) was “above 10 μM” and the “Effect of combining with fatty acid blend on βHb production vs sum of individual effects” value [1] was “more than additive”.
For O=C(/C=C/c1cccnc1)NCCCCC1CCN(C(=O)c2ccccc2)CC1 [FK866, reference compound], the “Depletion of NAD+ relative to baseline NAD+ content of untreated liver cells” value ([2]; 10 nM FK866) was about 70%.
NC(=O)c1ccc[n+]([C@@H]2O[C@H](CO)[C@@H](O)[C@H]2O)c1 [NR, nicotinamide riboside] was tested, and the “NAD+ content replenishment” value ([2]; NAD+ depleted cells, within 24 hours of treatment) was “dose-dependently replenishes NAD+ content to and above this baseline”, the “Increase of NAD+ content vs equimolar NAM or Niacin” value ([2]; high concentrations of 1 mM) was “significantly greater extent than equimolar amounts of NAM or Niacin” and the “Increase of NAD+ content vs equimolar Niacin” value ([2]; lower concentrations below 150 μM) was “greater extent than equimolar amounts of Niacin”. The “Top-level production of ketones” value ([3]; NAD+ depleted cells, oleic acid 1 μM to 100 μM, 6 hours) was “increased the top-level production of ketones” and the “NAD+ content” value ([3]; ketogenic diet like nutrient conditions) was “increased”.
For CCCCCCCC/C=C\CCCCCCCC(=O)O [OA, oleic acid, reference compound], the “Concentration at which top-level production of ketones is achieved” value ([1]; dose-response curve, substrate alone) was 100 µM.
For O=C(O)CC(O)(CC(=O)O)C(=O)O [citrate, citric acid], the “Increase of ketone production from the fat blend” value ([1]; citrate 200 μM to 1000 μM + 100 μM K-one fat blend) was 10-20%, the “Ketone production, citrate alone” value ([1]; citrate alone, no fat blend) was “no ketones” and the “Effect of combining with fatty acid blend on βHb production vs sum of individual effects” value [1] was “clearly greater than the sum”.
